Laboratory results: PubChem BioAssay AID179 (DTP/NCI, 2004)
Active and inactive are the calls of the source.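 The calls were made as follows: active = compounds giving half or more protection of infected cells from virus-caused growth loss, again on retest; inactive = the rest.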 Where a SMILES comes first, the peptide text is derived from it. [ ]: non-standard residue; d: D form. The star is where a group is joined. Trt = c1ccc(C(c2ccccc2)(c2ccccc2)*)cc1; Benzhydryl = c1ccc(C(c2ccccc2)*)cc1; Hyp = O=C(O)[CH]1C[CH](O)CN1; Cbz = O=C(OCc1ccccc1)*; OtBu = CC(C)(C)O*

Test system: CEM cells HIV-1 protection, formazan growth assay
Experiment: NCI AIDS Antiviral Assay
Conditions: for IC50: measured here: growth of uninfected CEM cells
Summary of the method: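 Category rules: moderately active means at least 50% protection on retest, and confirmed active means 100% protection reproducibly. The underlying data came from a formazan growth assay in HIV-1-infected CEM cells.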

| SMILES | EC50 | IC50 | outcome |
| --- | --- | --- | --- |
| Cc1ccc(C2SCC(=O)N2c2ccc(-c3ccc(-n4c(-c5ccccc5)nc5ccccc5c4=O)cc3)cc2)cc1 (stereo not drawn) | > 191 µM | 35.5 µM | – |
| Cn1c(=O)cc(C=Nc2ccc(S(N)(=O)=O)cc2)c2ccccc21 | > 200 µM | 1.51 µM | – |
| COc1ccc(-c2cc(-c3ccncc3)nc(N)c2-c2ccc(F)cc2)cc1 | > 174 µM | > 174 µM | – |
| CCOC(=O)CC(=O)Cc1oc2c(C(C)=O)c(O)c(C)c(O)c2c1C | > 200 µM | 21.4 µM | – |
| CCOC(=O)C1(C(=O)OCC)CC(=O)[C@@]2(C1)OCC[C@H]1OC(=O)C[C@H]12 | > 200 µM | > 200 µM | – |
| O=C(Nc1ccc(Cl)cc1Cl)C1C(=O)N(c2ccc(Cl)cc2Cl)C(=O)/C1=N\Nc1ccc([N+](=O)[O-])cc1[N+](=O)[O-] (stereo not drawn) | > 1.66 µM | > 1.66 µM | – |
| CC(Br)(c1ccccc1)[P+](c1ccccc1)(c1ccccc1)c1ccccc1 (stereo not drawn) | > 20 µM | 0.871 µM | – |
| C[C@@H](COCP(=O)(O)O)n1cnc2c(N)ncnc21 | > 200 µM | > 200 µM | – |
| O=C(NCCCCNCCCNC(=O)c1ccccc1)c1ccccc1 | > 200 µM | > 200 µM | – |
| Nc1ccc(C(=O)O)c2[nH]c3ccccc3c(=O)c12 | – | – | inactive |
| O=C1OC(c2ccccc2)=N/C1=C\c1ccccc1Cl | > 35.5 µM | > 35.5 µM | – |
| c1cc2nnc1SCCCSc1ccc(nn1)SCCCS2 | > 126 µM | 115 µM | – |
| Cc1n[nH]c2ccc(Br)cc2c1=O | > 50.1 µM | > 50.1 µM | – |
| C=C(CN(C)C)C(=O)c1ccc(C)cc1C | > 200 µM | 11.7 µM | – |
| CCC1(OC(=O)CN2CCN(CCO)CC2)C(=O)OCc2c1cc1n(c2=O)Cc2cc3ccccc3nc2-1 (stereo not drawn) | > 10 µM | 0.0912 µM | – |
| NCCCCC(=O)c1cccnc1 | > 1000 µM | 501 µM | – |
| COC(=O)C1(CC(=O)OCc2ccccc2)NCCc2c1[nH]c1ccccc21 (stereo not drawn) | > 3.31 µM | > 3.31 µM | – |
| NCCCCNc1ccc2c(=O)[nH][nH]c(=O)c2c1 | – | – | inactive |
| CCCn1c(SC)nc(COC(=O)NC)c1COC(=O)NC | > 200 µM | > 200 µM | – |
| C/C(=N/NC(N)=S)C(CN1CCOCC1)C(C1=C(O)c2ccccc2OC1)c1ccccc1 (stereo not drawn) | > 37.2 µM | > 37.2 µM | – |
| CCN(CC)c1ccc(N=Nc2ccc(-c3nc4cccn(C)c-4n3)cc2)cc1 | > 7.41 µM | > 7.41 µM | – |
| CCOC(=O)C1=NN(c2ccccc2)C(=O)/C1=C\N1C(=O)CC(=O)NC1=S | > 200 µM | 195 µM | – |
| COc1ccc(-c2cc(=O)c3c(OC)c(OC)c(OC)c(OC)c3o2)c(OC)c1 | > 200 µM | 20.4 µM | – |
| S=c1[nH]nc(Cc2ccccc2)c(=S)[nH]1 | – | – | inactive |
| COc1cc(Cl)c2c3c(c(C(=O)c4ccccc4)oc13)CCC2 | – | – | inactive |
| CCN(CC)CCCNc1ccc([N+](=O)[O-])c2nc3ccc(OC)cc3c(NCCCN(CC)CC)c12 | > 50.1 µM | 0.234 µM | – |
| CCCCCCCCCCCCCCCCCCOC(CO)COP(=O)(O)OCC1OC(n2cc(C)c(=O)[nH]c2=O)CC1F (stereo not drawn) | 0.00155 µM | 2 µM | – |

| SMILES | EC50 | IC50 | outcome |
| --- | --- | --- | --- |
| N#Cc1c(N2CCN(c3ccc([N+](=O)[O-])cc3)CC2)[n+](=O)c2ccc(Cl)cc2n1[O-] | > 20 µM | 0.631 µM | – |
| CC(C)(C)[Si](C)(C)OC[C@H]1O[C@@H](n2ccc(=O)[nH]c2=O)C[C@]12CCN(O)CO2 | > 200 µM | 105 µM | – |
| O=S(=O)(O)c1cccc2c1CN1CCCCC1C2 (stereo not drawn) | > 200 µM | > 200 µM | – |
| O=NN(CCCl)C(=O)/N=N/C(=O)N(CCCl)N=O | > 200 µM | 15.1 µM | – |
| O=C(CC1Sc2ccccc2NC1=O)Nc1cc(Cl)ccc1Cl (stereo not drawn) | > 70.8 µM | > 70.8 µM | – |
| CC1(C)O[C@H]2OC3CCC(=O)CC3(O)[C@H]2O1 (stereo partly drawn) | – | – | inactive |
| Cc1cc([C@H](C#N)c2nc3ccccc3[nH]2)nc(Cl)n1 | > 200 µM | 22.4 µM | – |
| N#CCc1nc(-c2cc3ccc(O)cc3oc2=O)cs1 | > 200 µM | 26.9 µM | – |
| C(=N\NC1=NCCCN1)/c1ccc2ccccc2c1 | > 200 µM | 8.32 µM | – |
| Cc1[nH]n(C2=NCCN2)c(=O)c1C | > 200 µM | > 200 µM | – |
| O=C1Oc2ccccc2C(=O)/C1=C/N1C(=O)N/C(=C\c2cccc(O)c2)C1=O | > 200 µM | 148 µM | – |
| CCOC(=O)C(=CNC(=S)N=Nc1c(O)[nH]c2ccccc12)C(=O)OCC | > 200 µM | 70.8 µM | – |
| Fc1ccccc1-c1nn2c(C34CC5CC(CC(C5)C3)C4)nnc2s1 | > 200 µM | > 200 µM | – |
| COC(=O)c1c(C)cccc1C1CN=NC12Cc1ccc(C)c(C)c1C2=O (stereo not drawn) | > 200 µM | 15.1 µM | – |
| O=[N+]([O-])C(C(Cl)=C(Cl)Cl)=C(N1CCOCC1)N1CCOCC1 | > 200 µM | 123 µM | – |
| C#CCOC(=O)c1ccc(OC(C)=O)cc1 | > 200 µM | 191 µM | – |
| CC(C)OC(=O)[C@@H]1OC(C)(C)O[C@H]1C(=O)OC(C)C | > 200 µM | > 200 µM | – |
| O=CC[C@@H]1c2ccccc2C=C[C@]12C=CC(=O)CC2 | > 74.1 µM | 53.7 µM | – |
| CC(C)(C)OC(=O)CNC(=O)C(Cc1ccccc1)NC(=O)C(CSC(c1ccccc1)(c1ccccc1)c1ccccc1)NC(=O)CNC(=O)C(Cc1ccccc1)NC(=O)CNC(=O)C(CSC(c1ccccc1)c1ccccc1)NC(=O)C(CSC(c1ccccc1)(c1ccccc1)c1ccccc1)NC(=O)OCc1ccccc1 (stereo not drawn) (Cbz-C(Trt)C(Benzhydryl)GFGC(Trt)FG-OtBu; configuration not given here) | > 8.32 µM | > 8.32 µM | – |
| NC(=O)c1cccn1Cc1ccccc1SSc1ccccc1Cn1cccc1C(N)=O | > 15.8 µM | 7.08 µM | – |
| CCOC(=O)CCC(NC(=O)CNC(=O)CNC(=O)C(CCC(=O)OCC)NC(=O)C(CCC(=O)OCC)NC(=O)C(CCC(=O)OCC)NC(=O)OCc1ccccc1)C(=O)NC(CCC(=O)OCC)C(=O)NC(CCC(=O)OCC)C(=O)OCC (stereo not drawn) (Cbz-E(OEt)E(OEt)E(OEt)GGE(OEt)E(OEt)E(OEt)-OEt; configuration not given here) | > 200 µM | > 200 µM | – |
| NC(=O)C(=CNC(=S)Nc1cccc(C(F)(F)F)c1)C(N)=O | > 200 µM | > 200 µM | – |
| CN(N=O)C(=O)NC(CCCCNC(=O)OCc1ccccc1)C(=O)OCc1ccccc1 (stereo not drawn) | > 21.9 µM | > 21.9 µM | – |
| COc1cc(C2c3cc4c(cc3OC(NNC(N)=O)C2C)OCO4)cc(OC)c1O (stereo not drawn) | > 200 µM | 0.525 µM | – |
| COc1ccc(N2CCCSC2=S)cc1 | > 200 µM | > 200 µM | – |
| COc1ccc2c(-c3ccc(O)cc3)c(Oc3ccccc3)c(=O)oc2c1 | – | – | inactive |
| O=C(O)[C@@H]1CSCN1C(=O)c1cccnc1SSc1ncccc1C(=O)N1CSC[C@H]1C(=O)O | > 200 µM | > 200 µM | – |

| SMILES | EC50 | IC50 | outcome |
| --- | --- | --- | --- |
| CC(=O)OC(C)(C)/C=C/C(=O)[C@](C)(O)[C@H]1[C@H](O)C[C@@]2(C)[C@@H]3CC=C4[C@@H](C=C(OC5OC(CO)C(O)C(O)C5O)C(=O)C4(C)C)[C@]3(C)C(=O)C[C@]12C (stereo partly drawn) | > 200 µM | 9.77 µM | – |
| CSC(SC)=C1CC(=O)Nc2ccccc2C1=O | > 200 µM | 58.9 µM | – |
| CN(C)[C@@H]1C(=O)C(C(N)=O)=C(O)[C@@]2(O)C(=O)C3=C(O)c4c(O)cccc4C[C@H]3C[C@@H]12 | > 200 µM | 3.55 µM | – |
| CC(C)(C)[Si](C)(C)OCC1OC(n2ccc(=O)[nH]c2=O)C(O[Si](C)(C)C(C)(C)C)/C1=C/C#N (stereo not drawn) | > 200 µM | 8.13 µM | – |
| Cc1ccc(C2=C(c3ccc(C)cc3)C(c3ccc(C)cc3)=C(c3ccc(C)cc3)C2=O)cc1 | > 16.2 µM | > 16.2 µM | – |
| CCOC(=O)N1CCNCCN(C(=O)OCC)CCNCC1 | > 200 µM | > 200 µM | – |
| O=C1Oc2ccccc2C(=O)/C1=C/N1C(=O)CNC1=S | > 200 µM | > 200 µM | – |
| O=[N+]([O-])C1C=Nc2ccccc2N=C1 | > 200 µM | > 200 µM | – |
| CCC(=O)N=c1sc(SCc2ccccc2)nn1C(=O)SC (tested in a mixture with another compound) | > 200 µM | 10.7 µM | – |
| Cc1ccc(-c2cc(-c3ccccc3)c(C#N)c(=O)[nH]2)cc1 | > 66.1 µM | > 66.1 µM | – |
| COC(=O)c1cc(C)ccc1C1CN=NC12Cc1ccc(C)cc1C2=O (stereo not drawn) | 145 µM | 182 µM | – |
| Cc1nc(N)c2nc(Nc3ccccc3)sc2n1 | > 141 µM | 66.1 µM | – |
| NC(=O)CNC(=O)C1CC(O)CN1C(=O)C1CCCN1C(=O)OCc1ccccc1 (stereo not drawn) (Cbz-Pro-[Hyp]-Gly-NH2; configuration not given here) | > 200 µM | > 200 µM | – |
| O=[N+]([O-])c1ccc(/C=[N+](\[O-])CCO)o1 | > 200 µM | 30.9 µM | – |
| COc1ccc(-n2c(C)nc3ccc(NC(=S)Nc4ccccc4)cc3c2=O)cc1 | > 200 µM | > 200 µM | – |
| CC1OC(n2cc(F)c(=O)[nH]c2=O)C=CC1=O (stereo not drawn) | > 1050 µM | 14.1 µM | – |
| CCOC(=O)/C=C\SCCC(=O)O | > 1230 µM | > 1230 µM | – |
| C[n+]1cccc2ccc(OC(=O)c3ccccc3)cc21 | – | – | inactive |
| N#CCc1nc2c(s1)C(=O)c1ccccc1C2=O | > 7.94 µM | > 7.94 µM | – |
| Cc1cc(=O)oc2c(C)c(OCCCOc3ccc4c(C)cc(=O)oc4c3C)ccc12 | > 32.4 µM | > 32.4 µM | – |
| C[n+]1c2ccccc2c(NC(CS)C(=O)O)c2ccccc21 (stereo not drawn) | – | – | inactive |
| CC(C)CC(NC(=O)C(Cc1ccc(O)cc1)NC(=O)C(CO)NC(=O)C(C)NC(=O)C(CCCN=C(N)N)NC(=O)C(CCC(N)=O)NC(=O)C(NC(=O)C(N)CCC(=O)O)C(C)C)C(=O)NC(CO)C(=O)NC(CCCCN)C(=O)O (stereo not drawn) (H-EVQRASYLSK-OH; configuration not given here) | – | – | inactive |
| Cc1ccccc1NC(=O)C(=O)Cc1cnc2ccccc2n1 | > 162 µM | > 162 µM | – |
| Cc1ccc(N/N=c2\c3nc4ccccc4nc2n(-c2ccccc2C)c(=S)n3-c2ccccn2)cc1 | > 17.8 µM | – | – |
| CC1=C(C(=O)Nc2cccc(Cl)c2)C(c2ccccc2O)C(C(=O)Nc2cccc(Cl)c2)=C(C)N1 | > 50.1 µM | 12 µM | – |
